Assay results published in patent US6287859A, “Identification, functional expression and chromosal localization of a sustained human proton-gated cation channel” (priority 1999, dated 2001).
Entries after “also recorded” stand apart in the source; their conditions may differ. Read-outs that look alike come from different tables or passages of the source.

Assays:
rASIC1A channel = target: T1, rASIC1A channel (Rattus norvegicus, UniProt P55926); assay: Proton-activated rASIC1A current in Xenopus oocytes (voltage clamp and outside-out patch); format: cell-based
T1 construct: cDNA isolated from rat brain codes for a protein of 526 amino acids; expressed in transfected cells; host or cells: Xenopus laevis oocytes injected with cRNA
T1 sequence (P55926 1-526): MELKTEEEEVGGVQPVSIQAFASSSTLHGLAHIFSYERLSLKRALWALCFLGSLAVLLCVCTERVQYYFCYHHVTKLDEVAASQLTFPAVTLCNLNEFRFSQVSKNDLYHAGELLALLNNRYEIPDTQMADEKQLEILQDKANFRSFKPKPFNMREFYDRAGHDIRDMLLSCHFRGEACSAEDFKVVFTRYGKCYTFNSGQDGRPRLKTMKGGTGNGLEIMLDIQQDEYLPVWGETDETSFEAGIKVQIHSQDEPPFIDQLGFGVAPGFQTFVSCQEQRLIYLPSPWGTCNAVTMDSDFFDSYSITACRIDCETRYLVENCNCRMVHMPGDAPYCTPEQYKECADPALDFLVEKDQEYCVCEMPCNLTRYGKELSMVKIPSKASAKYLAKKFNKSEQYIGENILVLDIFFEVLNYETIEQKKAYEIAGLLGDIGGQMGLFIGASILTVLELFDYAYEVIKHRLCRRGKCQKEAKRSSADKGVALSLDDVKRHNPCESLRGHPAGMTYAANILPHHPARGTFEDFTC
Description: 0.25 ng of cRNA was injected into the Xenopus laevis oocytes and the recording microelectrodes for the imposed voltage and for the patch-clamp were installed two days after the injection. The bath solutions for the outside-out patch recordings and the pipettes for the outside-out patch and total cells recordings contained: 140 mM KCl (or NMDG), 2 mM MgCl2, 5 mM EGTA, 10 mM Hepes, pH 7.4 (with KOH). The pipettes for the outside-out patch recordings and the bath solutions for the outside-out patch and total cells recordings contained: 140 mM NaCl (or LiCl or NMDGCl), 2 mM MgCl2, 1.8 mM CaCl2, 10 mM Hepes, pH 7.4 (adjusted with HCl, NaOH, LiOH or TMAOH). The intracellular acidification of the oocytes was implemented by injecting […] of the internal solution at pH 2 or by perfusion and withdrawal of a bath medium containing 20 mM NH4 Cl. […] The data were sampled at 2 kHz and filtered at 500 Hz for the analysis (Logiciel Biopatch).

[1] = system: proton-activated cationic channels of sensory neurons; settings: refs [18], [19]; cited from earlier work
hASIC3 [2] = target: T2, hASIC3 (Homo sapiens, UniProt Q9UHC3); assay: H+-gated hASIC3 whole-cell current in transfected COS cells; format: cell-based
T2 construct: expressed in transfected cells; host or cells: COS cells (DEAE-Dextran, hASIC3-PCI with CD8 marker)
T2 sequence (Q9UHC3 1-531): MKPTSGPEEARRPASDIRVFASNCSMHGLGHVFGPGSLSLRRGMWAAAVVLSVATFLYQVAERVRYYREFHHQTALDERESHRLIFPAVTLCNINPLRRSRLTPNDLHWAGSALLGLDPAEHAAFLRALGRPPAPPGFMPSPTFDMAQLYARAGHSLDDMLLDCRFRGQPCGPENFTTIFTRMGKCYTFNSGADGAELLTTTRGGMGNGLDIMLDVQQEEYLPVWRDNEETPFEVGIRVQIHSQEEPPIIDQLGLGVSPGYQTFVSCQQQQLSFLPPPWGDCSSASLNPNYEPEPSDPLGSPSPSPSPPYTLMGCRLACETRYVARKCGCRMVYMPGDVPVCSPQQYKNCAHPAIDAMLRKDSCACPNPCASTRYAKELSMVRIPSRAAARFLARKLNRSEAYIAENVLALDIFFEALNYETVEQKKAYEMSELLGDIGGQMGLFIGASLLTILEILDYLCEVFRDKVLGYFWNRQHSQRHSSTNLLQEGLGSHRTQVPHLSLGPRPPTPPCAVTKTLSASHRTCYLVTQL
Excerpt: (§1) The vector containing the hASIC3 coding sequence was linearized with NotI and blunt ended with T4 DNA polymerase. After inactivation of the T4 DNA polymerase, the hASIC3 coding sequence was excised with EcoRI and subsequently subcloned into the EcoRI/SalI (blunt) digested PCI expression vector (Promega). COS cells, at a density of 20.000 cells per 35 mm diameter petri dish, were transfected with a mix of CD8 and hASIC3-PCI (1:5) using the DEAE-Dextran method. Cells were used for electrophysiological measurements one to three days after transfection. Successfully transfected cells were recognised by their ability to fix CD8-antibody-coated beads. Ion currents were recorded using either the whole cell or outside-out patch-clamp technique. The pipette solution contained (in mM): KCl 120, NaCl 30, MgCl2 2, EGTA 5, HEPES 10 (pH 7.2). The bath solution contained in mM: NaCl 140, KCl 5, MgCl2 2, CaCl2 2, HEPES 10 (pH 7.3). Changes in extracellular pH were induced by opening one out of six outlets of a microperfusion system in front of the cell or patch. Test solutions having a pH of less then 6 were buffered with 10 mM MES rather than HEPES but were identical to the control solution in all other respects. Experiments were carried out at room temperature (20-24° C.).

perception of acid taste = settings: ref [2]; cited from earlier work
hASIC3 [3] = target: T2, hASIC3; assay: hASIC3 single channel currents in outside-out patches from transfected COS cells; format: cell-based; settings: 100 μM, outside-out patch, -60 mV, resting pH 7.3
Excerpt: as §1

[4] = H+-activated current, pH change from pH 7.4 to pH 6, -70 mV, oocytes, outside-out patch at 0 mV, read-out: Kd, reversible block of the rASIC1A channel

NC(=NCc1ccccc1)NC(=O)c1nc(Cl)c(N)nc1N [benzamil]
Kd (rASIC1A channel; [4]): 10 µM

N=C(N)NC(=O)c1nc(Cl)c(N)nc1N [amiloride]
Effect on the inflowing current activated by H+ in sensory neurons [1]: inhibited | IC50 (hASIC3 [2]; cells clamped at -60 mV, currents as fraction of mean current in absence of drug, read-out: K0.5, dose-response curve for inhibition of hASIC3 current): 15.9 µM | Effect on the sustained hASIC3 current (hASIC3 [2]; COS cells): virtually not affected | Kd (hASIC3 [2]; transient current, COS cells, read-out: KD, inhibition of the transient hASIC3 current): 15.9 µM | Effect on perception of acid taste (perception of acid taste): inhibits the perception of acid taste | Effect on spontaneous hASIC3 channel activity at pH 7.3 (hASIC3 [3]): inhibited; also recorded: disappears | Kd (rASIC1A channel): 10 µM

CCN(c1nc(N)c(C(=O)NC(=N)N)nc1Cl)C(C)C [EIPA, ethylisopropylamiloride]
Effect on the inflowing current activated by H+ in sensory neurons [1]: inhibited | Kd (rASIC1A channel; [4]): 10 µM

Nc1nc(N)c2nc(-c3ccccc3)c(N)nc2n1 [triamterene]
Effect on the sustained hASIC3 current (hASIC3 [2]; COS cells): virtually not affected | Effect on the transient hASIC3 current (hASIC3 [2]; transient current, COS cells): inhibited
